The source of these data is patent publication US12329774B2, “Method and composition for enhancing the quality and benefits of sleep” (priority 2020, dated 2025).

Data set [1] deals with caffeine-induced wakefulness mice. Kind of data set: Caffeine-induced wakefulness mouse model: sleep latency, sleep duration, number falling asleep. Conditions: caffeine-induced wake mouse; caffeine alone or + test article (20 mg theanine/kg). It is filed as in vivo. As for the experimental part: Animals and Experimental design: Seven male BALB/c mice per treatment arm (age: 8 weeks, weight: […]) were housed in a controlled environment with a 12:12-h light-dark cycle at 22° C. and were provided with mice chow and water ad libitum. All experiments were conducted under the National Institutes of Health's Guidelines for the Care and Use of Laboratory Animals and approved by the Ethics Committee of the Medipol University.
Drugs and materials: Study product was provided by Nutrition21 LLC (Mg-Theanate #1=lot AA209-122-20, Mg-Theanate #2=lot BLS-DN 13). […] The concentration of each drug solution was adjusted so that the volume injected was constant at 1.0 ml/kg BW. All drug solutions were prepared fresh daily, and were administered intraperitoneally (i.p.). […]

The subject of a further data set is MDA, SOD, CAT, GSHPx. Kind of data set: Brain antioxidant status in caffeine-induced wakefulness mice. It is filed as in vivo. Conditions: for CAT / GSHPx / SOD / MDA: caffeine followed by saline (C) or test article (20 mg theanine/kg), means and standard deviations. As for the experimental part: Animals were anesthetized with urethane ([…], i.p., Sigma U2500). Body temperature was maintained between 36.5 and 37° C. with homeothermic blanket. Mice were stabilized under a stereotaxic frame (World Precision Instruments, Berlin; Germany) and an incision was made on the skin along the anterior/posterior line of the skull. The left […] was removed gently with a dental drill (Marothon-3; Korea). Two Ag-AgCl sphere electrodes were placed over the left hemisphere with the reference electrode attached on the pinna. […] Brains were rapidly removed, frozen on dry ice and stored at -80° C. until analyses could be performed. Biochemical and Oxidative Stress Markers-Serum melatonin, serotonin, and dopamine were measured using ELISA kits. Brain levels of malondialdehyde (MDA) were measured by HPLC. Brain activities of superoxide dismutase (SOD), catalase (CAT) and glutathione peroxidase (GSHPx) were measured using ELISA kits for each analyte.

In a further data set the test system is wakefulness. Conditions: 7.5 mg/kg i.p.; Kwon et al., 2006; cited from earlier work.
Data set [2] has as its system brain serotonin, dopamine and melatonin. Kind of data set: Brain neurotransmitter levels by ELISA in caffeine-induced wakefulness mice. In kind it is in vivo. As to conditions: for Dopamine / Melatonin / Serotonin: brain, caffeine followed by saline (C) or test article (20 mg theanine/kg), ELISA, means and standard deviations. Background: In an ELISA, binding on a coated surface is turned into a signal by an enzyme label.

For data set [3] the following is noted: Ates et al. [2]; comparison in words; cited from earlier work.
For data set [4] the following is noted: 500 mg magnesium daily, 8 weeks, cited from earlier work.
Where [5] appears, read: caffeine-induced wake mouse, result in words.

`Cn1c(=O)c2c(ncn2C)n(C)c1=O` [C, Caffeine, reference compound]: in data set [1], the “Number of animals falling asleep (share of the group that fell asleep)” value is reported as “Caffeine: only 50% of the group fell asleep” and the Sleep latency period entry is recorded as “Caffeine: The sleep latency period doubled to about 2 minutes in caffeine-treated animals”. In the data set with MDA, SOD, CAT, GSHPx, the CAT is 24.40 + 1.62a IU/mg protein, the GSHPx was 12.07 + 2.89b IU/mg protein and the SOD is listed as 89.00 + 5.16a IU/mg protein. Also, the “Level of MDA (indicator of oxidative stress)” value with MDA, SOD, CAT, GSHPx (setting [5]) is “Caffeine: The level of MDA (an indicator of oxidative stress) was significantly increased,”. For the same compound, the “Time for which wakefulness is maintained” value in the data set on wakefulness is on record as “at least 2 h”. For the same compound, in data set [2], the Dopamine is listed as 584.86 + 72.47d ng/g, the Melatonin is on record as 0.59 + 0.05a pg/g and the Serotonin is listed as 571.00 + 42.14d ng/g. Further, in data set [2] (setting [5]), the “Neurotransmitter levels (brain serotonin, dopamine, and melatonin)” value was “Caffeine: Levels of all three neurotransmitters were significantly reduced, reflecting the”.

`CCNC(=O)CCC(N)C(=O)O` [CMgT1, magnesium di-L-theanate]: in the data set on MDA, SOD, CAT, GSHPx, the CAT was 36.47 + 1.27b IU/mg protein, the MDA is reported as 2.24 + 0.14c nmol/g and the SOD is listed as 131.14 + 9.86b IU/mg protein. In addition, in data set [2], the Dopamine is 832.71 + 74.50bc ng/g, the Melatonin is 0.80 + 0.03b pg/g and the Serotonin is 762.29 + 25.34b ng/g.

Take `CCNC(=O)CCC(N)C(=O)O` [CMgT2, magnesium di-L-theanate]: in the data set on MDA, SOD, CAT, GSHPx, the CAT is 35.96 + 2.52b IU/mg protein, the GSHPx is recorded as 19.11 + 2.39ab IU/mg protein, the MDA is reported as 2.24 + 0.09c nmol/g and the SOD is recorded as 137.29 + 5.99b IU/mg protein. Further, in data set [2], the Dopamine is 895.57 + 61.93ab ng/g, the Melatonin was 0.85 + 0.04b pg/g and the Serotonin is recorded as 751.43 + 30.34b ng/g.

On to `O=C([O-])CC(O)C(=O)[O-].[Mg+2]` (stereo not drawn) [magnesium malate], for which the “Absorption (and bioavailability) of magnesium” value (from here on “Absorption”) in data set [3] is on record as “more poorly absorbed than certain magnesium complexes with amino acids”.

With `[Mg+2]` [magnesium], the “Concentration of serum renin vs placebo” value in data set [4] (P<0.001) is recorded as “statistically significant increases”. In data set [4] (P=0.002), the “Sleep time vs placebo” value is on record as “statistically significant increases”. For the same compound, in data set [4] (P=0.007), the “Concentration of melatonin vs placebo” value is “statistically significant increases”. For the same compound, in data set [4] (P=0.03), the “Sleep efficiency vs placebo” value is recorded as “statistically significant increases”. In data set [4], the “Early morning wakening time” value is recorded as “shortened”. In addition, the “Insomnia Severity Index scores” value in data set [4] (subjective measure) is “improved”.

For the compound magnesium acetyl taurate, the “Absorption” value in data set [3] was “significantly better absorption and bioavailability than magnesium glycinate”.

Consider magnesium citrate, for which, in data set [3], the “Absorption” value is “more poorly absorbed than certain magnesium complexes with amino acids”.
